Test results taken from patent US5736510A, “Antibiotics 10381v, w, x,y, z1, z2, pre-b and t” (priority 1996, dated 1998).
“Also recorded” adds a separate entry of the source. Where two headings read alike, the source gives them in different places.

Columns and labels:
Type in all cases: cell-based
[1] = tested on: R. flavefaciens; conditions: for M.I.C.: Table III, mass basis, no correction for purity; for Minimal Inhibitory Concentration (bioactivity data): Table IV (separate study)
[2] = tested on: C. perfringens; set-up: Minimal Inhibitory Concentration (bioactivity data): unit not given here; conditions: for M.I.C.: Table III, mass basis, no correction for purity; for Minimal Inhibitory Concentration (bioactivity data): Table IV (separate study)
[3] = tested on: P. ruminicola; conditions: strain 118B
[4] = tested on: F. necrophorum; conditions: for M.I.C.: Table III, mass basis, no correction for purity; for Minimal Inhibitory Concentration (bioactivity data): Table IV (separate study)
[5] = tested on: S. faecalis; conditions: for M.I.C.: Table III, mass basis, no correction for purity; for Minimal Inhibitory Concentration (bioactivity data): Table IV (separate study)
[6] = tested on: S. bovis; conditions: strain JB1
[7] = tested on: B. thetaiotaomicron; conditions: strain UC9014
Description: (§1) The assay measures the ability of a compound to inhibit the growth of certain types of anaerobic bacteria which normally inhabit the gut of poultry, swine or cattle.
(§2) Two mg/ml solutions of the drugs to be tested are made in 10% v/v ethanol/water. This stock is then diluted to one mg per ml and then further diluted through a series of ten-two fold dilutions. At each concentration an aliquot is placed in a sterile petri plate. Nine volumes of molten agar are then added to each plate, mixed and allowed to harden at room temperature. These plates are then transferred to a Coy chamber and allowed to dry and equilibrate with the oxygen free atmosphere.
(§3) Organisms used for MIC testing are inoculated into broth media, and incubated 18-24 h at 39° C. prior to use. The cultures are then diluted to equal the turbidity of a 0.5 MacFarland barium sulfate standard, except for the porcine isolates P108-3C1, P105-1C3 and P105-1C4 which are diluted 1:1. All inoculations and dilutions are performed in the anaerobic chamber using broth media and syringe transfer through the butyl robber stoppers.
(§4) Freshly prepared and diluted cultures are loaded into the wells of a Steers replicator device. This apparatus can dispense ca 10 μl of each of 32 cultures onto the surface of the preincubated agar plates. One hour after the inoculation, the inoculum will have been absorbed and the plates are inverted and incubated at 38°-39° C. for 48 h. Plates are then removed from the chamber and the MIC for the test compounds determined. MIC's are reported as the lowest concentration of a compound which prevented detectable growth of a test organism on the agar plates. […] Thus, each set of test plates yields individual MIC values for each of the 32 test organisms.

[8] = tested on: M. elsdenii; conditions: strain B159
[9] = tested on: E. ruminantium; conditions: strain GA195
[10] = tested on: S. ruminantium; conditions: for M.I.C.: Table III, mass basis, no correction for purity; for Minimal Inhibitory Concentration (bioactivity data): Table IV (separate study)
[11] = tested on: B. fragilis; conditions: strain UC9370
[12] = tested on: R. amylophilus; conditions: strain H18
[13] = tested on: E. lentum; conditions: strain L-34; Table IV (separate study)
[14] = tested on: S. hyodysenteriae; set-up: unit not given here; conditions: Table IV (separate study)
Description: as §1, §2, §3, §4

[15] = tested on: B. fibrisolvens; conditions: for M.I.C.: Table III, mass basis, no correction for purity; for Minimal Inhibitory Concentration (bioactivity data): Table IV (separate study)
[16] = tested on: anaerobic bacteria which normally inhabit the gut of poultry, swine or cattle; experiment: in vitro MIC assay, overall comparison of components across the test organisms
Description: as §1, §2, §3, §4

[17] = tested on: L. multiparus; conditions: strain 40
[18] = Table III, mass basis, no correction for purity

Compound: C=C(NC(=O)c1ccc2c(n1)-c1coc(n1)C(=C)NC(=O)C(=C)NC(=O)c1nc(oc1C)C(=CC)NC(=O)c1csc(n1)C(OC)NC(=O)c1nc(oc1C)C(=CC(C)O)NC(=O)C(C(C)O)NC(=O)c1csc-2n1)C(N)=O (stereo not drawn) [Antibiotic 10381y, 52-de[1-[[[1-(aminocarbonyl)ethenyl]amino]carbonyl]ethenyl]-sulfomycin I]
- M.I.C. ([1]; strain C94): 6.3 µg/mL
- Minimal Inhibitory Concentration (bioactivity data) ([1]; strain C94): 0.8
- M.I.C. ([1]; strain FD1): < 0.2 µg/mL
- Minimal Inhibitory Concentration (bioactivity data) ([1]; strain FD1): 0.4
- M.I.C. ([2]; strain 71A02): < 0.2 µg/mL
- Minimal Inhibitory Concentration (bioactivity data) ([2]; strain 71A02): < 0.2
- M.I.C. ([2]; strain A82-1): 0.8 µg/mL
- Minimal Inhibitory Concentration (bioactivity data) ([2]; strain A82-1): 12.5
- M.I.C. ([2]; strain A83-3): < 0.2 µg/mL
- Minimal Inhibitory Concentration (bioactivity data) ([2]; strain A83-3): < 0.2
- M.I.C. ([2]; strain A83-RKP): 0.4 µg/mL
- Minimal Inhibitory Concentration (bioactivity data) ([2]; strain A83-RKP): < 0.2
- M.I.C. ([2]; strain CCS1-11): 0.8 µg/mL
- Minimal Inhibitory Concentration (bioactivity data) ([2]; strain CCS1-11): < 0.2
- M.I.C. ([2]; strain CCS2-09): < 0.2 µg/mL
- Minimal Inhibitory Concentration (bioactivity data) ([2]; strain CCS2-09): < 0.2
- M.I.C. ([2]; strain P1051C3): 12.5 µg/mL
- Minimal Inhibitory Concentration (bioactivity data) ([2]; strain P1051C3): 6.3
- M.I.C. ([2]; strain P1083C1): < 0.2 µg/mL
- Minimal Inhibitory Concentration (bioactivity data) ([2]; strain P1083C1): 0.8
- M.I.C. ([2]; strain RF1B04): < 0.2 µg/mL
- Minimal Inhibitory Concentration (bioactivity data) ([2]; strain RF1B04): < 0.2
- M.I.C. ([2]; strain UC9452): < 0.2 µg/mL
- Minimal Inhibitory Concentration (bioactivity data) ([2]; strain UC9452): 0.8
- M.I.C. [3, 18]: < 0.2 µg/mL
- Minimal Inhibitory Concentration (bioactivity data) ([3]; Table IV (separate study)): < 0.2
- M.I.C. ([4]; strain FN4070): 25.0 µg/mL
- Minimal Inhibitory Concentration (bioactivity data) ([4]; strain FN4070): 50.0
- M.I.C. ([4]; strain FN5052): 25.0 µg/mL
- Minimal Inhibitory Concentration (bioactivity data) ([4]; strain FN5052): 50.0
- M.I.C. ([5]; strain 71A01): 6.3 µg/mL
- Minimal Inhibitory Concentration (bioactivity data) ([5]; strain 71A01): 6.3
- M.I.C. ([5]; strain CCS1-03): 1.6 µg/mL
- Minimal Inhibitory Concentration (bioactivity data) ([5]; strain CCS1-03): 3.1
- M.I.C. ([5]; strain P1051C4): 1.6 µg/mL
- Minimal Inhibitory Concentration (bioactivity data) ([5]; strain P1051C4): 0.8
- M.I.C. [6, 18]: 0.4 µg/mL
- Minimal Inhibitory Concentration (bioactivity data) ([6]; Table IV (separate study)): 0.8
- M.I.C. [7, 18]: < 0.2 µg/mL
- Minimal Inhibitory Concentration (bioactivity data) ([7]; Table IV (separate study)): 50.0
- M.I.C. [8, 18]: > 100.0 µg/mL
- Minimal Inhibitory Concentration (bioactivity data) ([8]; Table IV (separate study)): > 100
- M.I.C. [9, 18]: 6.3 µg/mL
- Minimal Inhibitory Concentration (bioactivity data) ([9]; Table IV (separate study)): 0.8
- M.I.C. ([10]; strain GA31): 25.0 µg/mL
- Minimal Inhibitory Concentration (bioactivity data) ([10]; strain GA31): < 0.2
- M.I.C. ([10]; strain GA192): > 100.0 µg/mL
- Minimal Inhibitory Concentration (bioactivity data) ([10]; strain GA192): < 0.2
- M.I.C. [11, 18]: 1.6 µg/mL
- Minimal Inhibitory Concentration (bioactivity data) ([11]; Table IV (separate study)): 50.0
- M.I.C. [12, 18]: 100.0 µg/mL
- Minimal Inhibitory Concentration (bioactivity data) ([12]; Table IV (separate study)): < 0.2
- Minimal Inhibitory Concentration (bioactivity data) [13]: < 0.2
- Minimal Inhibitory Concentration (bioactivity data) ([14]; strain 16-4): > 100
- Minimal Inhibitory Concentration (bioactivity data) ([14]; strain B204): > 100
- M.I.C. ([15]; strain 49): < 0.2 µg/mL
- Minimal Inhibitory Concentration (bioactivity data) ([15]; strain 49): 0.4
- M.I.C. ([15]; strain D1): < 0.2 µg/mL
- Minimal Inhibitory Concentration (bioactivity data) ([15]; strain D1): < 0.2
- bioactivity relative to the 10381b antibiotic complex or the 10381b (10381b2) component ([16]; against a variety of microorganisms): increased antimicrobial activity; also recorded: about double
- in vitro activity ranking of the individual components ([16]; conclusion from Tables III and IV): most active
- M.I.C. [17, 18]: < 0.2 µg/mL
- Minimal Inhibitory Concentration (bioactivity data) ([17]; Table IV (separate study)): 12.5
